2 molecules from US8163927B2, “Azabicyclo [3.1.0] hexane derivatives as modulators of dopamine D3 receptors” (Glaxo Group Limited, priority 2006, dated 2012) can be followed below.

For the assay, the target named is T1, D2 receptors (Homo sapiens, UniProt P14416).
T1 construct: expressed in transfected cells
Nature of the assay: GTPS scintillation proximity assay (GTPS-SPA), CHO_D2 cell membranes. It counts as biochemical. The settings on record: up to the highest concentration tested in the assay (3 μM). The protocol:
Functional potency of compounds of this invention can be measured by the following GTPS scintillation proximity assay (GTPS-SPA). Cells used in the study are Chinese Hamster Ovary (CHO) Cells.
All steps are performed at 4° C. Cell membranes are prepared as follows. Cell pellets are resuspended in 10 volumes of 50 mM HEPES, 1 mM EDTA pH 7.4, using KOH.
Cells are homogenised within a glass waring blender for 2 bursts of 15 secs in 200 mls of buffer (50 mM HEPES, 1 mM leupeptin, 25 μg/ml bacitracin, 1 mM EDTA, 1 mM PMSF, 2 μM Pepstatin A). (the latter 2 reagents added as fresh ×100 and ×500 stocks respectively in ethanol). […]
The final top concentration of test drug is 3 μM in the assay and 11 points serial dilution curves 1:4 in 100% DMSO are carried out using a Biomek FX. […] The final assay cocktail (45.5 μl) is incubated at room temperature to equilibrate for 3-6 hours before reading on a ViewLux™ (613/55 filter) luminescence imager 5 min/plate.
The effect of the test drug over the basal generates fpKi values of test drug are calculated from the IC50 generated by “antagonist format” experiment, using Cheng & Prusoff equation: fKi=IC50/1+([A]/EC50) where: [A] is the concentration of the agonist Quinelorane in the assay and EC50 is the Quinelorane EC50 value obtained in the same experiment. fpKi is defined as −log fKi. […]
A general note: Scintillation proximity formats need no separation of bound from free tracer.

T1 sequence (P14416 whole entry): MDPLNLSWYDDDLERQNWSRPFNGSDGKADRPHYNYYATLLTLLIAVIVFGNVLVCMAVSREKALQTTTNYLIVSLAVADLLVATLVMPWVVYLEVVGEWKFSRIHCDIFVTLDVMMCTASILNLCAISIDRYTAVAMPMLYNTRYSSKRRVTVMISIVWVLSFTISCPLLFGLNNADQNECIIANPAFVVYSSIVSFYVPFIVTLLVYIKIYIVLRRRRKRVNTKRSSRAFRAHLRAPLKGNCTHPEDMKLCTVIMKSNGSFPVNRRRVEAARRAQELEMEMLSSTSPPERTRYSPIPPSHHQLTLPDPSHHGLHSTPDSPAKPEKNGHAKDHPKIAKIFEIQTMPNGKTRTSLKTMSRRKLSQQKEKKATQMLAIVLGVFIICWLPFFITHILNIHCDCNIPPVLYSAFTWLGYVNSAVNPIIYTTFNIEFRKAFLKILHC

In the case of `COc1cccn(CCCCN2C[C@@H]3C[C@]3(c3ccc(C(F)(F)F)cc3)C2)c1=O.Cl` [Example E8, 3-(methyloxy)-1-(4-{(1S,5R)-1-[4-(trifluoromethyl)phenyl]-3-azabicyclo[3.1.0]hex-3-yl}butyl)-2(1H)-pyridinone hydrochloride], the “activity in the D2 GTPS-SPA assay” value is recorded as “no activity”. Next, `Cl.N#Cc1cccn(CCCCN2C[C@@H]3C[C@]3(c3ccc(C(F)(F)F)cc3)C2)c1=O` [Example E9, 2-oxo-1-(4-{(1S,5R)-1-[4-(trifluoromethyl)phenyl]-3-azabicyclo[3.1.0]hex-3-yl}butyl)-1,2-dihydro-3-pyridinecarbonitrile hydrochloride]: “no activity”.
